Values after ≈ are worked out from the molar mass of the structure shown. Values joined by “and” are separate entries in the source; they are usually repeats but may differ in a detail not shown here. Equal entries are not always repeated.
Key:
MLP2 = test: ANS displacement assay; type: binding, Papaver somniferum; conditions: for IC50 / Log10IC50: 10 µM protein and 10 µM ANS, CBS pH 5.5; for Kd: from average IC50 and PR10-ANS Kd, competitive inhibition assumed, read-out: Estimated Kd
From the text: (§1) Eluates were store separately on ice.
(§2) Displacement of ANS is associated with reduced fluorescence.

PR10-12 [1] = test: ANS displacement assay; type: binding, Papaver somniferum; conditions: for IC50 / Log10IC50: 10 µM protein and 10 µM ANS, CBS pH 5.5; for Kd: from average IC50 and PR10-ANS Kd, competitive inhibition assumed, read-out: Estimated Kd
From the text: as §1, §2

PR10-10 [2] = target: T1, PR10-10 (Papaver somniferum, UniProt A0A9Y2YA81); test: ANS displacement assay; type: binding; conditions: ANS displacement dose-response fit
T1 sequence (A0A9Y2YA81 1-158): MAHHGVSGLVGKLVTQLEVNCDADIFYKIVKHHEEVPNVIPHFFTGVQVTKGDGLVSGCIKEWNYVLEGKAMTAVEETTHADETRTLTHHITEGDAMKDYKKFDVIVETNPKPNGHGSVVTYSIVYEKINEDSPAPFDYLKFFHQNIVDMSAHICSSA
From the text: as §1, §2

PR10-12 [3] = test: Isothermal titration calorimetry; type: binding, Papaver somniferum; conditions: ITC, PBS pH 7.4, 25 °C, single-site model
Experimental: (§3) ITC experiments were conducted using a Microcal VP instrument (Malvern Pananalytical, Malvern, UK). Recombinant MLP/PR10 protein preparation involving production in Escherichia coli followed by cobalt-affinity chromatography was optimized to yield relatively high purity in a single step as determined by SDS-PAGE and colloidal Coomassie blue silver staining. The less than 48 h decrease in atmospheric oxygen exposure generated high-quality proteins with reduced precipitate. […] Eluates were twice dialysed to equilibrium (i.e., 10–12 h at 4 °C) against a 1000-fold (2–4 L) volume of PBS, pH 7.4 (25 mM sodium phosphate, 50 mM NaCl) or CBS, pH 5.5, resulting in a theoretical million-fold dilution of undesired small molecules (e.g., <0.2 µM imidazole). Dialysis was carried out in boiled Spectra/Por 1 6–8 kDa MWCO 0.32 ml/cm (Spectrum Labs, USA) tubing thoroughly washed with either buffer before use. The second 1000-fold volume of dialysis buffer was filtered and degassed using a reusable bottle-top filtration apparatus (Nalgene, USA) with disposable […] cellulose filters (VWR, Canada) prior to storage at 4 °C. Ligands were dissolved in the filtered dialysis buffer at 21 °C for approximately one hour, and any insoluble material was removed by repeated centrifugation at 21,000 × g for 10 min. No change in pH occurred following substrate addition. Prior to ITC, which was initiated immediately following dialysis, the protein solutions were centrifuged at 17,000 × g and 4 °C for 30 min. Any precipitate was separated from the remaining soluble protein fraction which was quantified by absorption at A280nm and diluted with filtered dialysis buffer immediately before use.
(§4) Thermograms were recorded at 25 °C, with a reference power of 10 (dpu/sec) and monitoring of 30 injections of 9 µl BIA ligand solutions into a sample cell containing 1.4 ml of an MLP/PR10 protein solution, with 300 seconds between injections. Protein concentrations varied from 10 to 150 µM to achieve an optimal C value and curve shape valid for parameter calculation. […] To ensure that we report only the heat of reaction for each interaction, independent titrations of ligand into buffer, and buffer into protein solutions, were used to calculate and then subtract heats of dilution. After subtraction, binding isotherms were analyzed in MicroCal Origin 7 (MicroCal, USA) by fitting a single-site binding model using non-linear least squares regression analysis repeated until convergence. […] Each ITC experiment was repeated 2 to 4 times.

NISO [4] = target: T2, NISO (Papaver somniferum, UniProt P0DYP9); test: ANS displacement assay; conditions: for IC50: IC50, NISO; for IC50 / Log10IC50: 10 µM protein and 10 µM ANS, CBS pH 5.5; for Log10IC50 / Hill Slope: NISO; for Hill Slope: ANS displacement dose-response fit
Experimental: (§5) 8-anilino-1-naphthalenesulfonic acid (ANS) fluorescence binding curves and the binding-induced reduction in ANS fluorescence resulting from competition with tested ligands across a range of concentration facilitated the measurement of IC50 and an estimate of Kd values using the binding models and procedures described previously[70]. […] ANS was dissolved in dimethylsufoxide at a concentration of 20 mM, stored at −20 °C until dilution and protected from exposure to light. […] 40 µl of the ANS solution and 40 µl of each MLP/PR10 protein solution were combined to 80 µl final reaction volumes, which were incubated at 21 °C for 10 min to allow equilibration of binding. Triplicate 18-µl aliquots were withdrawn from each 80 µl reaction, transferred to optically clear PCR tubes (Diamed, Canada) and ANS fluorescence was measured following an additional 3-min incubation at 30 °C using a Qiagen Rotor-gene Q 6-plex with excitation and emission filters of 365 ± 20 nm and 460 ± 20 nm, respectively. An identical reaction series whereby protein was omitted from the mixtures was measured under identical conditions and trace fluorescence was subtracted from each MLP/PR10 protein-containing sample. Each data set was scaled so that the maximum observed fluorescence corresponded to 100% and individual data points were plotted, and a rectangular hyperbolic ligand binding function was fit, using least-squares analysis (Prism 5 software, Graphpad, USA). Experiments were repeated at least twice with independently prepared protein.
(§6) Displacement of ANS is associated with reduced fluorescence. […] Briefly, 40 µl of 20 µM ANS and individual MLP/ PR10 protein solutions were combined in CBS buffer, pH 5.5, incubated at 21 °C for 5 min, mixed with 40 µl of separate 0 to 6 mM BIA solutions in CBS buffer, pH 5.5, and the 80 µl reactions were subsequently incubated for 10 min at 21 °C. Fluorescence was measured as described above, including subtraction of any fluorescence in a blank series whereby protein was omitted. […] Each experiment was repeated at least twice with independently prepared MLP/PR10 proteins and BIA ligand.

MLP15 [5] = target: T3, MLP15 (Papaver somniferum, UniProt P19825); test: ANS displacement assay; conditions: for IC50: IC50, MLP15; for IC50 / Log10IC50: 10 µM protein and 10 µM ANS, CBS pH 5.5; for Log10IC50 / Hill Slope: MLP15; for Hill Slope: ANS displacement dose-response fit
T3 sequence (P19825 1-159): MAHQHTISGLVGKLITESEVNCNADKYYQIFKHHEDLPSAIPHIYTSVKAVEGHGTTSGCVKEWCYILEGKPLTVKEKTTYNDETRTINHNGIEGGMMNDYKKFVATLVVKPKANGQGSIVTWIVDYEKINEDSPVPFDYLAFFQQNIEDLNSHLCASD
Experimental: as §5, §6

NISO [6] = target: T2, NISO; test: Isothermal titration calorimetry; type: binding; design: made in house; host or cells: E. coli ArcticExpress (DE3); conditions: ITC, PBS pH 7.4, 25 °C
Experimental: as §3, with “UK).” for “UK). Recombinant MLP/PR10 protein preparation involving production in Escherichia coli followed by cobalt-affinity chromatography was optimized to yield relatively high purity in a single step as determined by SDS-PAGE and colloidal Coomassie blue silver staining. The less than 48 h decrease in atmospheric oxygen exposure generated high-quality proteins with reduced precipitate.”, “No change in pH occurred following substrate addition.” left out
as §4, with “injections.” for “injections. Protein concentrations varied from 10 to 150 µM to achieve an optimal C value and curve shape valid for parameter calculation.”

THS2 [7] = target: T4, THS2 (Papaver somniferum, UniProt A0A2U9GGW3); test: Isothermal titration calorimetry; type: binding; design: made in house; host or cells: E. coli ArcticExpress (DE3); conditions: ITC, PBS pH 7.4, 25 °C
Experimental: as §3, with “UK).” for “UK). Recombinant MLP/PR10 protein preparation involving production in Escherichia coli followed by cobalt-affinity chromatography was optimized to yield relatively high purity in a single step as determined by SDS-PAGE and colloidal Coomassie blue silver staining. The less than 48 h decrease in atmospheric oxygen exposure generated high-quality proteins with reduced precipitate.”, “No change in pH occurred following substrate addition.” left out
as §4, with “injections.” for “injections. Protein concentrations varied from 10 to 150 µM to achieve an optimal C value and curve shape valid for parameter calculation.”

PR10-4 = test: ANS displacement assay; type: binding, Papaver somniferum
From the text: as §1, §2

[8] = Ligand solubility threshold in ITC buffer; type: physicochemical; conditions: filtered dialysis buffer (CBS, 21 °C, aqueous buffer, thermodynamic from solid); pH 5.5, ITC buffer
Experimental: ITC experiments were conducted using a Microcal VP instrument (Malvern Pananalytical, Malvern, UK). Recombinant MLP/PR10 protein preparation involving production in Escherichia coli followed by cobalt-affinity chromatography was optimized to yield relatively high purity in a single step as determined by SDS-PAGE and colloidal Coomassie blue silver staining. The less than 48 h decrease in atmospheric oxygen exposure generated high-quality proteins with reduced precipitate. […] Eluates were twice dialysed to equilibrium (i.e., 10–12 h at 4 °C) against a 1000-fold (2–4 L) volume of PBS, pH 7.4 (25 mM sodium phosphate, 50 mM NaCl) or CBS, pH 5.5, resulting in a theoretical million-fold dilution of undesired small molecules (e.g., <0.2 µM imidazole). […] Any precipitate was separated from the remaining soluble protein fraction which was quantified by absorption at A280nm and diluted with filtered dialysis buffer immediately before use.
Thermograms were recorded at 25 °C, with a reference power of 10 (dpu/sec) and monitoring of 30 injections of 9 µl BIA ligand solutions into a sample cell containing 1.4 ml of an MLP/PR10 protein solution, with 300 seconds between injections. […] After subtraction, binding isotherms were analyzed in MicroCal Origin 7 (MicroCal, USA) by fitting a single-site binding model using non-linear least squares regression analysis repeated until convergence. […]

THS2 [9] = target: T4, THS2; test: ANS displacement assay
Experimental: as §5, §6

MLP15 [10] = target: T3, MLP15; test: Isothermal titration calorimetry; type: binding; design: made in house; host or cells: E. coli ArcticExpress (DE3); conditions: ITC thermogram, injections into buffer and MLP15
Experimental: ITC experiments were conducted using a Microcal VP instrument (Malvern Pananalytical, Malvern, UK). […] Dialysis was carried out in boiled Spectra/Por 1 6–8 kDa MWCO 0.32 ml/cm (Spectrum Labs, USA) tubing thoroughly washed with either buffer before use. The second 1000-fold volume of dialysis buffer was filtered and degassed using a reusable bottle-top filtration apparatus (Nalgene, USA) with disposable […] cellulose filters (VWR, Canada) prior to storage at 4 °C. Ligands were dissolved in the filtered dialysis buffer at 21 °C for approximately one hour, and any insoluble material was removed by repeated centrifugation at 21,000 × g for 10 min. […] Prior to ITC, which was initiated immediately following dialysis, the protein solutions were centrifuged at 17,000 × g and 4 °C for 30 min. Any precipitate was separated from the remaining soluble protein fraction which was quantified by absorption at A280nm and diluted with filtered dialysis buffer immediately before use.
as §4, with “injections.” for “injections. Protein concentrations varied from 10 to 150 µM to achieve an optimal C value and curve shape valid for parameter calculation.”

PR10-10 [11] = target: T1, PR10-10; test: Isothermal titration calorimetry; type: binding; conditions: ITC, CBS pH 5.5, printed in brackets beside *, read-out: Kd (estimate, low enthalpy system)
Experimental: as §3, with “UK).” for “UK). Recombinant MLP/PR10 protein preparation involving production in Escherichia coli followed by cobalt-affinity chromatography was optimized to yield relatively high purity in a single step as determined by SDS-PAGE and colloidal Coomassie blue silver staining. The less than 48 h decrease in atmospheric oxygen exposure generated high-quality proteins with reduced precipitate.”, “No change in pH occurred following substrate addition.” left out
as §4, with “injections.” for “injections. Protein concentrations varied from 10 to 150 µM to achieve an optimal C value and curve shape valid for parameter calculation.”

[12] = 10 µM protein and 10 µM ANS, CBS pH 5.5

T4 sequence (A0A2U9GGW3 whole entry): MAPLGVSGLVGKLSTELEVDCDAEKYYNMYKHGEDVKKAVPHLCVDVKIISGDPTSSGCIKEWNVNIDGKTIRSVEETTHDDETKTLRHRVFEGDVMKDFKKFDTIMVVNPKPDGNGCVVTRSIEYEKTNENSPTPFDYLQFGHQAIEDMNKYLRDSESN
T2 sequence (P0DYP9 entry or part of it): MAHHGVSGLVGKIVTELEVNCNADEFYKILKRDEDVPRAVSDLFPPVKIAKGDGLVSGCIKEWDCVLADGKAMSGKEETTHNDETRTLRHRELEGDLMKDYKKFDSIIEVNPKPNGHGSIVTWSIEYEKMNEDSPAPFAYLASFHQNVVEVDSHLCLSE

Structure (SMILES)	IC50 (MLP2) [µM]	Log10IC50 (MLP2)	Kd (MLP2) [µM]	IC50 (PR10-12 [1]) [µM]	Log10IC50 (PR10-12 [1])	Kd (PR10-12 [1]) [µM]	Kd (NISO [4]) [µM]	IC50 (NISO [4])	Log10IC50 (NISO [4])	Hill Slope (NISO [4])	Kd (MLP15 [5]) [µM]	IC50 (MLP15 [5])	Log10IC50 (MLP15 [5])	Hill Slope (MLP15 [5])	also measured
COc1ccc2c3c1O[C@H]1[C@@H](O)C=C[C@H]4[C@@H](C2)N(C)CC[C@@]341 [Codeine, codeine]	203	2.31 ± 0.14	151	1500	3.18 ± 0.36	1460	24.2	28 µM and 28.2 µM	1.45 ± 0.13	-0.72 ± 0.13	931	1050 µM	3.02 ± 0.17	-0.97 ± 0.13	Hill Slope (PR10-10 [2]): ~ 0.13 ± 0.35; Kd (PR10-12 [3]): 140 ± 13.6 µM; Kd (PR10-12 [3]; listed as codeine): 140 µM; ΔH (NISO [6]): -3.556 ± 0.02607 kcal/mol; ΔS (NISO [6]): 13.9 cal/mol/˚K; N (NISO [6]; single-site model): 1.07 ± 0.00547; Kd (NISO [6]; Kd, single-site model): 2 µM and 2.22 µM; ΔH (THS2 [7]): 1.868 ± 0.0686 kcal/mol; ΔS (THS2 [7]): 27.2 cal/mol/˚K; N (THS2 [7]; single-site model): 0.51 ± 0.0145; Kd (THS2 [7]; Kd, single-site model): 26 µM and 26.5 µM
COc1ccc2c(c1OC)C(=O)O[C@@H]2[C@H]1c2c(cc3c(c2OC)OCO3)CCN1C [Noscapine, noscapine]	~40.4	~ 1.61 ± 0.07	~29.9	~4.18	~ 0.62 ± 0.17	~4.07	56.7	66 µM and 66.1 µM	1.82 ± 0.07	-5.05 ± 6.55	37.8	43 µM and 42.6 µM	1.63 ± 0.04	-1.18 ± 0.10	IC50 (PR10-4; [12]): ~126 µM; Log10IC50 (PR10-4; [12]): ~ 2.102 ± 0.59; Kd (PR10-4; from average IC50 and PR10-ANS Kd, competitive inhibition assumed, read-out: Estimated Kd): ~116 µM; solubility [8]: 1100 µM (≈ 455 µg/mL); Kd (THS2 [9]): ~9.66 µM; IC50 (THS2 [9]; IC50, THS2, 10 µM protein and 10 µM ANS, CBS pH 5.5): 14 µM and ~14.3 µM; Log10IC50 (THS2 [9]; THS2, 10 µM protein and 10 µM ANS, CBS pH 5.5): ~ 1.16 ± 0.48; Hill Slope (THS2 [9]; THS2, ANS displacement dose-response fit): ~ -1.13 ± 0.78; endothermic positive peaks during the initial injections (MLP15 [10]): > 0.2 µcal/s; exothermic heat-change plateau of the final injections (MLP15 [10]): -0.48 µcal/s
COc1cc2c(cc1OC)[C@@H]1Cc3ccc(OC)c(OC)c3CN1CC2 [Tetrahydropalmatine]	–	–	–	–	–	–	–	–	–	–	–	–	–	–	Kd (PR10-10 [11]): 180 ± 133 µM

— publication PMC9646721, “Alkaloid binding to opium poppy major latex proteins triggers structural modification and functional aggregation” (Nature Communications, 2022)
